Source: US6534035B1, “Methods of inhibiting clot formation” (President and Fellows of Harvard College, priority 1998, dated 2003)
Entries after “also recorded” stand apart in the source; their conditions may differ. Peptide text beside a SMILES is read from it. * marks the point of attachment. Biotin = O=C1N[C@H]2[C@H](CS[C@H]2CCCCC(=O)*)N1

Experiments:
[1] = biological target: T1, human plasma FXIII (Homo sapiens, UniProt P00488); experiment: Crosslinking of α2AP13-24 into fibrin by plasma FXIII in FXIII-free fibrinogen; assay type: biochemical
T1 construct: purchased American Diagnostica; host or cells: purified from human plasma
T1 sequence (P00488 39-732 limits assumed): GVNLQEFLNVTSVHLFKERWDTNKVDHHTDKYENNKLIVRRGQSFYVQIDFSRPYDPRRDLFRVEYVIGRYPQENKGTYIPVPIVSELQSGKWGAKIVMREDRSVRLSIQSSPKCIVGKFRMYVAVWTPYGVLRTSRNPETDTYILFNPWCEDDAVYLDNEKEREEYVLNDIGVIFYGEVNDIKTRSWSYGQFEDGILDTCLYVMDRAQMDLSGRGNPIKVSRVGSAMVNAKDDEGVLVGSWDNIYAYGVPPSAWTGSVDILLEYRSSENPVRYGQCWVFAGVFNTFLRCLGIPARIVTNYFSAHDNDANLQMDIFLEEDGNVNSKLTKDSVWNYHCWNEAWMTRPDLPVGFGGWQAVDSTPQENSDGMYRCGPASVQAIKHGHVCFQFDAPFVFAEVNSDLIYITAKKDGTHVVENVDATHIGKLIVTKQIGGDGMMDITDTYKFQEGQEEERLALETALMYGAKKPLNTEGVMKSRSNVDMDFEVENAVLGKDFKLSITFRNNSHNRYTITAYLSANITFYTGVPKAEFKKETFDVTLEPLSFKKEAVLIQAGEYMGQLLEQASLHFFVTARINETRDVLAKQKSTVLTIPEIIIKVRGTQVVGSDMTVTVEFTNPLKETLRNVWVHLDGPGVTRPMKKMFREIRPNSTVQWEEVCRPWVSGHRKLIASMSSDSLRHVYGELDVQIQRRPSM
Experimental: Fibrin clots (50 μl) were prepared in duplicate by mixing FXIII-free fibrinogen (2 mg/ml final), α2AP13-24 (SEQ ID NO:2; 0.5 mM final), CaCl2 (2 mM final), human plasma FXIII (100 nM/L final) and guinea pig tissue transglutaminase (100 nM/L final) and thrombin (1 U/ml final) and incubating at 37° C. for 2 hours. The crosslinking of α2AP13-24 was detected as described above.

[2] = tested on: pulmonary emboli; experiment: Crosslinking of α2AP13-24 into pulmonary emboli in vivo; set-up: species or system ferret; conditions: 0.5 mM dose of biotinylated peptide after embolization, 4 hours
Experimental: To examine whether FXIIIa which formed thrombi in vivo retained the ability to crosslink substrates, the ferret pulmonary embolism model was used. Clots were formed by combining 45 μl of pooled human fresh frozen plasma with ^125I-labeled fibrinogen (˜100,000 cpm/clot), 2.5 μl of 0.4 M CaCl2, and 2.5 μl thrombin (1000 U/ml). The clots were incubated at 37° C. for 20 minutes, washed three times in saline, and 6 were embolized into the lungs of each animal. Three experimental groups were examined with 2 animals in each group. One group received normal clots and a solution of α2AP13-24 (SEQ ID NO:2) calculated to produce a final peptide concentration of 0.5 mM. Another group also received the same peptide concentration; prior to embolization, the clots in this group were washed in iodoacetamide (10 mg/ml) and EDTA (10 mM final) to inhibit clot associated FXIIIa. The third group received the blood clots but no peptide infusion afterward. Four hours after embolization, the ferrets were sacrificed by CO2 inhalation. The heart, lungs, and great vessels were removed and gamma-counted to locate the pulmonary emboli.
Lung tissue containing pulmonary emboli was localized with a Geiger counter, excised and weighed. […]

[3] = biological target: T2, factor XIIIa-mediated crosslinking of α2AP to fibrin (Homo sapiens, UniProt P00488); experiment: Inhibition of α2AP-fibrin crosslinking in plasma clots by α2AP polypeptide (immunoblot); assay type: biochemical
T2 construct: from tissue; host or cells: human plasma clotted with thrombin and calcium
T2 sequence (P00488 39-732 limits assumed): T1 sequence (P00488 39-732 limits assumed)
Experimental: To inhibit the crosslinking of α2AP to fibrin, a polypeptide spanning the crosslinking site on the amino terminus of α2AP (SEQ ID NO:2) was synthesized. The purity of the polypeptide was analyzed by high performance liquid chromatography, and its composition was verified by amino acid analysis on a Waters Picotag system. The α2AP polypeptide was then solubilized in 20 mM Tris-HCl and the pH was adjusted to 7.0. Various concentrations of polypeptide (7.5 μl, 0-5 mM final) were mixed with 20 μl of plasma, 1.25 μl of calcium chloride (0.4 mM), and 1.25 μof thrombin (10.0 units/ml) and clotted for 90 minutes at 37° C. as described above. The clots were solubilized and analyzed by immunoblotting as described above.

SMILES: CC(C)C[C@H](NC(=O)[C@H](CC(C)C)NC(=O)[C@@H](NC(=O)[C@H](CC(C)C)NC(=O)[C@@H]1CCCN1C(=O)[C@H](CO)NC(=O)[C@@H](NC(=O)[C@H](CCC(N)=O)NC(=O)[C@H](CCC(=O)O)NC(=O)[C@H](CCC(N)=O)NC(=O)[C@@H](N)CC(N)=O)C(C)C)[C@@H](C)O)C(=O)N[C@@H](CCCCNC(=O)CCCC[C@@H]1SC[C@@H]2NC(=O)N[C@@H]21)C(=O)O [α2AP13-24, NQEQVSPLTLLK] (H-NQEQVSPLTLLK(Biotin)-OH)
- crosslinking of peptide to fibrin ([1]; equivalent amount of purified exogenous FXIIIa added to FXIIIa-deficient fibrinogen): significantly more crosslinking
- crosslinking of peptide to fibrin ([1]; purified FXIIIa-deficient fibrinogen, no enzyme added): little, if any, significant crosslinking
- incorporation of peptide into existing pulmonary emboli [2]: specific staining was detected in the thrombus; also recorded: covalently incorporated
- α2AP-fibrin crosslinking ([3]; peptide concentrations of 1.5 mM and 3.0 mM): little α2AP crosslinking was visible
- formation of fibrin γ-γ crosslinks ([3]; plasma clots formed with α2AP polypeptide): no apparent effect
- peptide concentration giving progressively less α2AP-fibrin crosslinking ([3]; plasma clots, 90 minutes at 37° C.): ≥ 0.38 mM
